Test results as given in patent publication US20240116985A1, “STAPLED PEPTIDES AND METHODS THEREOF” (priority 2020, published 2024).
Converted amounts (≈) assume the structure as drawn. Like-named read-outs stand apart in the source and are kept apart here.

Columns and labels:
[1] = biological target: T1, full-length beta-Catenin (Uniprot ID P35222) (Homo sapiens, UniProt P35222); assay: Fluorescence polarization IC50 (beta-catenin / 5FAM-TCF4 10-53 competition); format: binding; details: read-out: beta-Catenin FP IC50
T1 construct: 10 nM full-length beta-Catenin (Uniprot ID P35222)
T1 sequence (P35222 1-781): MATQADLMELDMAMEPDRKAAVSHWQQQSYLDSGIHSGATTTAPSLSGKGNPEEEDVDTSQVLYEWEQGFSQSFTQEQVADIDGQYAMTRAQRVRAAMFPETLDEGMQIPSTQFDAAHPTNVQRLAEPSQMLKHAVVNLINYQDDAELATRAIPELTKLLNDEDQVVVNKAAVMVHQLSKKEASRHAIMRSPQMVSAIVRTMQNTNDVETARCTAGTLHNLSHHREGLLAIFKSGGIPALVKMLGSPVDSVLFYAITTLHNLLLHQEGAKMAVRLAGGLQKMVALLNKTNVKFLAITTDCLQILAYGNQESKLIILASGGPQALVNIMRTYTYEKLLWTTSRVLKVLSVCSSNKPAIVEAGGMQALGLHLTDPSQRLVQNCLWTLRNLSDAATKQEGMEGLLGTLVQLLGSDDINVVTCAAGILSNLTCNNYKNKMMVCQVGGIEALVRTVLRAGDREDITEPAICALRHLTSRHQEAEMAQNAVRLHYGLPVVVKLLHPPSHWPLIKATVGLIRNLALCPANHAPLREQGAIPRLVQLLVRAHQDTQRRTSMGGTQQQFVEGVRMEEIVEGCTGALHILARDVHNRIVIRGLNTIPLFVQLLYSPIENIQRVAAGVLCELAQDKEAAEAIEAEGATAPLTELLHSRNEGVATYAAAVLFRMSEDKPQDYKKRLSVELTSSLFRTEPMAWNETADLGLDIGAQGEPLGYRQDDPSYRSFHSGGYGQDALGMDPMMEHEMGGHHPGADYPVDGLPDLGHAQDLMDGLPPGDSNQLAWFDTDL

CHI Log D procedure = format: physicochemical; details: pH 7.4, CHI Log D
Solubility in PBS = format: physicochemical
How it was run: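 The PBS solution was ultracentrifuged and the supernatant analyzed by HPLC. Its peak area was divided by that of a 50 μM peptide DMSO reference injection and multiplied by 50 uM to give solubility.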

[2] = biological target: T2, beta-catenin/TCF4 engagement (Homo sapiens, UniProt P35222); assay: Nano-BRET target engagement assay (B-cat-Halo & TCF4-Luc in HEK293 cells); format: cell-based; details: for inhibition at 10 µM: HEK293, @ 10 uM, read-out: NanoBRET % inh @ 10 uM
T2 construct: expressed in transfected cells; host or cells: HEK293
T2 sequence (P35222 1-781): T1 sequence (P35222 1-781)

| Compound | IC50 [1] | chromatographic logD (CHI Log D procedure) | Solubility (Solubility in PBS) | IC50 ([2]; read-out: NanoBRET Abs IC50) | IC50 ([2]; read-out: NanoBRET IC50) | Solubility (Solubility in PBS; Solubility (uM)) | inhibition at 10 µM [2] |
| --- | --- | --- | --- | --- | --- | --- | --- |
| COc1ccccc1C[C@H](NC(=O)[C@]12CCN(C1)C(=O)OCCCC=CCCCC1(CCCC=CC[C@]3(CCCN3C(C)=O)C(=O)N[C@@H](CC(=O)O)C(=O)N[C@@H](CC(C)(C)C)C(=O)N1)C(=O)N[C@@H](CC(=O)O)C(=O)N[C@@H](CC(=O)O)C(=O)N[C@@H](C)C(=O)N[C@@H](C)C(=O)N[C@@H](Cc1ccccc1)C(=O)N[C@@H](CC(N)=O)C(=O)N2)C(=O)N[C@@H](Cc1csc2ccccc12)C(=O)N[C@@H](CCC(N)=O)C(N)=O (stereo partly drawn) [I-780, Ac-PL3-Asp-Npg-B5-Asp-Asp-Ala-Ala-Phe-Asn-PyrS2-2OMeF-BztA-Gln-NH2] | 0.009 µM | 2.08 | 50 µM (≈ 97.1 µg/mL) | 20.7 µM | 17.1 µM | – | – |
| CC(=O)N1CCC[C@]12CC=CCCCC1(CCCC=CCCCOC(=O)N3CC[C@@](C(=O)N[C@@H](Cc4ccccc4Cl)C(=O)N[C@@H](Cc4csc5ccccc45)C(=O)N[C@@H](CCC(N)=O)C(N)=O)(C3)NC(=O)[C@H](CC(N)=O)NC(=O)[C@H](Cc3ccccc3)NC(=O)[C@H](C)NC(=O)[C@H](C)NC(=O)[C@H](CC(=O)O)NC(=O)[C@H](CC(=O)O)NC1=O)NC(=O)[C@H](CC(C)(C)C)NC(=O)[C@H](CC(=O)O)NC2=O (stereo partly drawn) [I-783, Ac-PL3-Asp-Npg-B5-Asp-Asp-Ala-Ala-Phe-Asn-PyrS2-2C1F-BztA-Gln-NH2] | 0.007 µM | 2.19 | – | 6.2 µM | 7.5 µM | 48 µM (≈ 93.4 µg/mL) | 50.9% |

Further lines, results first:

| IC50 [1] | chromatographic logD (CHI Log D procedure) | Solubility (Solubility in PBS) | IC50 ([2]; read-out: NanoBRET Abs IC50) | IC50 ([2]; read-out: NanoBRET IC50) | Solubility (Solubility in PBS; Solubility (uM)) | inhibition at 10 µM [2] | Compound |
| --- | --- | --- | --- | --- | --- | --- | --- |
| 0.005 µM | 2.16 | – | – | 11.6 µM | 41 µM (≈ 80 µg/mL) | 24% | COc1ccccc1C[C@H](NC(=O)[C@]12CCN(C1)C(=O)OCCCC=CCCCC1(CCCC=CC[C@]3(CCCN3C(C)=O)C(=O)N[C@@H](CC(=O)O)C(=O)N[C@@H](CC(C)(C)C)C(=O)N1)C(=O)N[C@@H](CC(=O)O)C(=O)N[C@@H](CC(=O)O)C(=O)N[C@@H](C)C(=O)N[C@@H](C)C(=O)N[C@@H](Cc1ccccc1)C(=O)N[C@@H](CC(N)=O)C(=O)N2)C(=O)N[C@@H](Cc1csc2ccccc12)C(=O)N[C@@H](Cc1c[nH]cn1)C(N)=O (stereo partly drawn) [I-781, Ac-PL3-Asp-Npg-B5-Asp-Asp-Ala-Ala-Phe-Asn-PyrS2-2OMeF-BztA-His-NH2] |
| 0.006 µM | 2.21 | – | 12.2 µM | – | 38 µM (≈ 73.5 µg/mL) | – | CC(=O)N1CCC[C@]12CC=CCCCC1(CCCC=CCCCOC(=O)N3CC[C@@](C(=O)N[C@@H](Cc4ccccc4C)C(=O)N[C@@H](Cc4csc5ccccc45)C(=O)N[C@@H](Cc4c[nH]cn4)C(N)=O)(C3)NC(=O)[C@H](CC(N)=O)NC(=O)[C@H](Cc3ccccc3)NC(=O)[C@H](C)NC(=O)[C@H](C)NC(=O)[C@H](CC(=O)O)NC(=O)[C@H](CC(=O)O)NC1=O)NC(=O)[C@H](CC(C)(C)C)NC(=O)[C@H](CC(=O)O)NC2=O (stereo partly drawn) [I-782, Ac-PL3-Asp-Npg-B5-Asp-Asp-Ala-Ala-Phe-Asn-PyrS2-2MeF-BztA-His-NH2] |
| 0.006 µM | 2.29 | – | 14.5 µM | 12.1 µM | 21 µM (≈ 41.1 µg/mL) | 35.1% | CC(=O)N1CCC[C@]12CC=CCCCC1(CCCC=CCCCOC(=O)N3CC[C@@](C(=O)N[C@@H](Cc4ccccc4Cl)C(=O)N[C@@H](Cc4csc5ccccc45)C(=O)N[C@@H](Cc4c[nH]cn4)C(N)=O)(C3)NC(=O)[C@H](CC(N)=O)NC(=O)[C@H](Cc3ccccc3)NC(=O)[C@H](C)NC(=O)[C@H](C)NC(=O)[C@H](CC(=O)O)NC(=O)[C@H](CC(=O)O)NC1=O)NC(=O)[C@H](CC(C)(C)C)NC(=O)[C@H](CC(=O)O)NC2=O (stereo partly drawn) [I-784, Ac-PL3-Asp-Npg-B5-Asp-Asp-Ala-Ala-Phe-Asn-PyrS2-2C1F-BztA-His-NH2] |
